The record followed here is patent publication US4419123A, “Herbicidal 4-trifluoromethyl-3'-carbon-substituted-4'-substituted diphenyl ethers” (Rohm and Haas Company, priority 1981, dated 1983).

A short description of data set [1]: Preemergence herbicidal activity (% control) against monocot weeds. The conditions noted are these: pre-emergence, 336 h, average, about two weeks after application, read-out: Herbicidal activity (% control), preemergence, monocots; for activity at 4483.4 g/ha: 4 lb./A.; for activity at 2241.7 g/ha: 2 lb./A. The data set is classed as in vivo. An excerpt:
(§1) barnyardgrass (Echinochloa crusgalli) crabgrass (Digitaria spp.) nutsedge (Cyperus esculentus)
(§2) At 2 and 4 pounds per acre:
(§3) **Bermudagrass (Cynodon dactylon)
(§4) *downy brome (Bromus tectorum) foxtail (Setaria faberii)
(§5) Johnsongrass (Sorghum halepense) […]
(§6) quackgrass (Agropyron repens)
(§7) *ryegrass (Lolium perenne)
(§8) *wild oats (Avena factua)
(§9) *yellow millet (Panicum miliaceum)
(§10) The following test procedure is employed.

Data set [2] can be described thus: Preemergence herbicidal activity (% control) against dicot weeds. Conditions: pre-emergence, 336 h; for activity at 4483.4 g/ha: read-out: Herbicidal activity (% control), preemergence, dicots, 4 lb./A., average, about two weeks after application; for activity at 2241.7 g/ha: read-out: Herbicidal activity (% control), preemergence, dicots, 2 lb./A., average, about two weeks after application.

A further data set concerns wheat. Description: Crop tolerance (selective herbicidal activity), wheat. The data set is classed as in vivo.
A further data set relates to rice. Nature of the data set: Crop tolerance (selective herbicidal activity), rice. The data set is classed as in vivo.
For a further data set, the system named is cotton. Nature of the data set: Crop tolerance (selective herbicidal activity), cotton. The conditions noted are these: preemergence applications. The data set is classed as in vivo. Here is the method:
as §10
(§11) Following the general test procedure of Example 37, diphenyl ethers are evaluated for significant tolerance (as shown by 50% or less kill of the test crop at levels of application which give more than 50% kill of many or all of the weeds of Example 73) towards some or all of the following common agronomic crops (not all compounds tested against all crops): alfalfa, snapbeans, corn, cotton, cucumbers, peanuts, rape, rice, safflower, soybeans, tomatoes, and wheat.

A further data set relates to soybeans. Nature of the data set: Crop tolerance (selective herbicidal activity), soybeans. The data set is classed as in vivo. The conditions noted are these: preemergence applications.
A short description of data set [3]: Postemergence herbicidal activity (% control) against dicot weeds. The conditions noted are these: post-emergence, 336 h; for activity at 4483.4 g/ha: read-out: Herbicidal activity (% control), postemergence, dicots, 4 lb./A., average, about two weeks after application; for activity at 2241.7 g/ha: read-out: Herbicidal activity (% control), postemergence, dicots, 2 lb./A., average, about two weeks after application.

In the next data set the test system is corn. Description: Crop tolerance (selective herbicidal activity), corn. The data set is classed as in vivo.
The subject of the next data set is peanuts. Nature of the data set: Crop tolerance (selective herbicidal activity), peanuts. In kind it is in vivo.
Data set [4] can be described thus: Postemergence herbicidal activity (% control) against monocot weeds. In kind it is in vivo. The conditions noted are these: post-emergence, 336 h, average, about two weeks after application, read-out: Herbicidal activity (% control), postemergence, monocots; for activity at 4483.4 g/ha: 4 lb./A.; for activity at 2241.7 g/ha: 2 lb./A.
Description: as §1, §2, §3, §4, §5, §6, §7, §8, §9, §10

In a further data set the test system is snapbeans. Description: Crop tolerance (selective herbicidal activity), snapbeans. The data set is classed as in vivo. Conditions: preemergence applications. As for the experimental part: as §10, §11
Data set [5] deals with Monocots (barnyardgrass, Bermudagrass, crabgrass, downy brome, foxtail, Johnsongrass, nutsedge, quackgrass, ryegrass, wild oats, yellow millet). Nature of the data set: Preemergence herbicidal activity (% control) against monocot weeds. Conditions: average, about two weeks after application. In kind it is in vivo.
Description: as §1, §2, §3, §4, §5, §6, §7, §8, §9, §10

Data set [6] has as its system Dicots (bindweed, cocklebur, coffeeweed, curly dock, lambsquarters, morningglory, pigweed, ragweed, smartweed, tomato, velvetleaf, wild carrot, wild mustard). Nature of the data set: Preemergence herbicidal activity (% control) against dicot weeds. Conditions: average, about two weeks after application.
Data set [7] shares this test system. Description: Postemergence herbicidal activity (% control) against dicot weeds. The conditions noted are these: average, about two weeks after application.
The test system of data set [8] is Monocots (barnyardgrass, Bermudagrass, crabgrass, downy brome, foxtail, Johnsongrass, nutsedge, quackgrass, ryegrass, wild oats, yellow millet). Nature of the data set: Postemergence herbicidal activity (% control) against monocot weeds. The data set is classed as in vivo. Conditions: average, about two weeks after application.
Description: as §1, §2, §3, §4, §5, §6, §7, §8, §9, §10

Turning to `CC(C)Oc1cc(Oc2ccc(C(F)(F)F)cc2Cl)ccc1[N+](=O)[O-]` [Example 4], the activity at 4483.4 g/ha was found to be 98% in data set [1], 100% in [2], 100% in [3] and 80% in data set [4]. Also, the Tolerance to wheat result in the data set on wheat (postemergence applications) and in the data set with wheat (preemergence applications) was “Tolerance (significant tolerance (as shown by 50% or less kill of the test crop at levels of application which give more than 50% kill of many or all of the weeds of Example 73))” each time. Moreover, the Tolerance to rice entry with rice (preemergence applications) was “Tolerance (significant tolerance (as shown by 50% or less kill of the test crop at levels of application which give more than 50% kill of many or all of the weeds of Example 73))”. Besides, the Tolerance to cotton result in the data set on cotton is “Tolerance (significant tolerance (as shown by 50% or less kill of the test crop at levels of application which give more than 50% kill of many or all of the weeds of Example 73))”. Besides, the Tolerance to soybeans entry in the data set on soybeans is given as “Tolerance (significant tolerance (as shown by 50% or less kill of the test crop at levels of application which give more than 50% kill of many or all of the weeds of Example 73))”. The Tolerance to corn result with corn (postemergence applications) and in the data set with corn (preemergence applications) was “Tolerance (significant tolerance (as shown by 50% or less kill of the test crop at levels of application which give more than 50% kill of many or all of the weeds of Example 73))” each time. Moreover, the Tolerance to peanuts entry with peanuts (postemergence applications) was “Tolerance (significant tolerance (as shown by 50% or less kill of the test crop at levels of application which give more than 50% kill of many or all of the weeds of Example 73))”. In addition, the Tolerance to snapbeans result with snapbeans is recorded as “Tolerance (significant tolerance (as shown by 50% or less kill of the test crop at levels of application which give more than 50% kill of many or all of the weeds of Example 73))”.

As for `O=C([O-])c1cc(Oc2ccc(C(F)(F)F)cc2Cl)ccc1[N+](=O)[O-].[Na+]` [Example 48A, Sodium 5-(2-Chloro-4-trifluoromethylphenoxy)-2-nitrobenzoate], the results for the “Herbicidal activity (% control), preemergence, monocots” value in [5] (2 lb./A.) and in [5] (4 lb./A.) were 89% and 99%, respectively. The “Herbicidal activity (% control), preemergence, dicots” value in [6] (2 lb./A.) is reported as 84%; in [6] (4 lb./A.) it was 98%. Besides, the “Herbicidal activity (% control), postemergence, dicots” value in [7] (2 lb./A.) was 98%; in data set [7] (4 lb./A.), 100%. Also, the “Herbicidal activity (% control), postemergence, monocots” value in data set [8] (2 lb./A.) is on record as 86%; in data set [8] (4 lb./A.), 92%.

As for `C#CC(C)Oc1cc(Oc2ccc(C(F)(F)F)cc2Cl)ccc1[N+](=O)[O-]` (centres unmarked) [Example 30], the activity at 2241.7 g/ha in data set [1] worked out at 78%; in data set [2], 94%; in data set [3] it was 100%; in [4], 91%. Also, the activity at 4483.4 g/ha in data set [1] came to 81%; in [2] it was 99%; in data set [3], 100%; in data set [4] it was 75%. The Tolerance to wheat result in the data set on wheat (postemergence applications) is recorded as “Tolerance (significant tolerance (as shown by 50% or less kill of the test crop at levels of application which give more than 50% kill of many or all of the weeds of Example 73))”. In addition, the Tolerance to rice result in the data set with rice (postemergence applications or applications on transplanted rice) and with rice (preemergence applications) was “Tolerance (significant tolerance (as shown by 50% or less kill of the test crop at levels of application which give more than 50% kill of many or all of the weeds of Example 73))” throughout. The Tolerance to cotton entry in the data set on cotton was “Tolerance (significant tolerance (as shown by 50% or less kill of the test crop at levels of application which give more than 50% kill of many or all of the weeds of Example 73))”. Moreover, the Tolerance to soybeans result in the data set on soybeans is on record as “Tolerance (significant tolerance (as shown by 50% or less kill of the test crop at levels of application which give more than 50% kill of many or all of the weeds of Example 73))”. The Tolerance to peanuts entry in the data set on peanuts (preemergence applications) is reported as “Tolerance (significant tolerance (as shown by 50% or less kill of the test crop at levels of application which give more than 50% kill of many or all of the weeds of Example 73))”.

With `CCOC(=O)C(C)Oc1cc(Oc2ccc(C(F)(F)F)cc2Cl)ccc1[N+](=O)[O-]` (stereo not drawn) [Example 26, 2-Chloro-α,α,α-trifluoro-p-tolyl-3-(1-carbethoxyethoxy)-4-nitrophenyl ether], the activity at 2241.7 g/ha is 75% in data set [1], 99% in data set [2], 100% in data set [3] and 93% in data set [4]. The activity at 4483.4 g/ha in [1] is 98%; in data set [2], 100%; in data set [3], 100%; in data set [4], 99%. For the same compound, in the data set on wheat (preemergence applications), the Tolerance to wheat result was “Tolerance (significant tolerance (as shown by 50% or less kill of the test crop at levels of application which give more than 50% kill of many or all of the weeds of Example 73))”. Moreover, the Tolerance to soybeans entry in the data set with soybeans is given as “Tolerance (significant tolerance (as shown by 50% or less kill of the test crop at levels of application which give more than 50% kill of many or all of the weeds of Example 73))”. Further, the Tolerance to corn result with corn (postemergence applications) is given as “Tolerance (significant tolerance (as shown by 50% or less kill of the test crop at levels of application which give more than 50% kill of many or all of the weeds of Example 73))”. Further, in the data set on snapbeans, the Tolerance to snapbeans result was “Tolerance (significant tolerance (as shown by 50% or less kill of the test crop at levels of application which give more than 50% kill of many or all of the weeds of Example 73))”.
